{"source": "patent US6376552B1", "about": "“Treatment of gallstones” (Knoll Pharmaceutical Company, priority 1999, dated 2002)", "tested_on": "gallstones", "assay": "administration to a patient during weight loss, development of gallstones", "type": "in vivo, human", "settings": "10 mg orally once daily in the morning while patient is losing weight", "procedure": "Sibutramine 10 mg orally once daily is administered in the morning during the time a patient is losing weight.", "data": [{"smiles": "CC(C)CC(N(C)C)C1(c2ccc(Cl)cc2)CCC1", "note": "(stereo not shown) [Sibutramine, N,N-dimethyl-1-[1-(4-chlorophenyl)cyclobutyl]-3-methylbutylamine]", "values": [{"measurement": "development of gallstones", "value": "does not develop gallstones"}]}]}
